Data taken from BindingDB's records for doi:10.1016/j.bmcl.2013.01.017 (Vanderbilt University Medical Center, 2013).
pEC50: −log10 of the molar value.

Target: T1, Muscarinic acetylcholine receptor M1 (Homo sapiens, UniProt P11229)
T1 sequence (P11229 whole entry): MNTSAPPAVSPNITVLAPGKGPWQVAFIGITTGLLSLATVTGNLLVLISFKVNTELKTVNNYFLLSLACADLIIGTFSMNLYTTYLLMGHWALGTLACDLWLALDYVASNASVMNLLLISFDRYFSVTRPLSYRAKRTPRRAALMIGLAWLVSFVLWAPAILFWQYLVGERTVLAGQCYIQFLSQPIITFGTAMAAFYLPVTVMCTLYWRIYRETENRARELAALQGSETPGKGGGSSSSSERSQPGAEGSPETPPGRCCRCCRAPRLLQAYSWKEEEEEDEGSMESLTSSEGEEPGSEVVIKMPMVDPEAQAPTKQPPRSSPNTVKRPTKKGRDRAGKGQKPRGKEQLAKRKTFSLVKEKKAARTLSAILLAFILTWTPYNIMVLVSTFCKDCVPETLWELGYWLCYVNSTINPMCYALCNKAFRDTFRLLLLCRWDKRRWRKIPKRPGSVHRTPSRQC
Test: Positive allosteric modulation of human muscarinic M1 receptor

- pEC50: < 5.00
SMILES: Cn1cc(-c2ccc(CN3C(=O)C4(CCN(C5CCCC5)C4)c4ccccc43)c(F)c2)cn1 (stereo unspecified)
